This test relates to CD2F1 mice, L1210 leukemia sc, survival T/C. In words: NCI In Vivo Anticancer Drug Screen. Data for tumor model L1210 Leukemia (subcutaneous) in CD2F1 (CDF1) mice. The note with it: endpoint: median survival time, higher = longer survival. Put shortly:
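T/C ratio: treated-group survival or tumor size over vehicle-control group measurement, in mice carrying transplanted tumors.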

Where “and” joins values, the source holds several entries; their conditions need not be identical. Equal values may be shown once. Inconclusive results and toxic doses are left out.

Turning to `S=c1nc[nH]c2nc[nH]c12`, the T/C runs as follows: (dose: 5.0 mg/kg/injection, schedule: Q01DX009 (sc), vehicle: saline with Tween-80) 113 % of control; (dose: 5.0 mg/kg/injection, schedule: Q## X Z (sc), vehicle: other) 111 % of control; (dose: 8.4 mg/kg/injection, schedule: Q01DX Z (sc), vehicle: methylcellulose (MC)) 100 % of control; (dose: 14.0 mg/kg/injection, schedule: Q01DX Z (ip), vehicle: other) 100 % of control; (dose: 14.0 mg/kg/injection, schedule: Q01DX Z (sc), vehicle: methylcellulose (MC)) 100 % of control; (dose: 14.0 mg/kg/injection, schedule: Q01DX Z (sc), vehicle: other) 100 % of control. Further, the T/C (dose: 14.0 mg/kg/injection, schedule: Q## X Z (sc), vehicle: other) is 172 % of control; the T/C (dose: 14.0 mg/kg/injection, schedule: Q#A X Z (sc), vehicle: other) is 111 % of control; the T/C (dose: 20.0 mg/kg/injection, schedule: Q01DX009 (sc), vehicle: saline with Tween-80) is 167 % of control; the T/C (dose: 23.0 mg/kg/injection, schedule: Q01DX Z (ip), vehicle: other) was 100 % of control; the T/C (dose: 23.0 mg/kg/injection, schedule: Q01DX Z (oral), vehicle: other) was 110 % of control; the T/C (dose: 23.0 mg/kg/injection, schedule: Q01DX Z (sc), vehicle: methylcellulose (MC)) is 109 % of control and 110 % of control. Moreover, the T/C (dose: 23.0 mg/kg/injection, schedule: Q02DX Z (sc), vehicle: other) was 100 % of control; the T/C (dose: 23.0 mg/kg/injection, schedule: Q## X Z (sc), vehicle: other) is 161 % of control; the T/C (dose: 23.0 mg/kg/injection, schedule: Q#A X Z (sc), vehicle: other) is 105 % of control; the T/C (dose: 25.0 mg/kg/injection, schedule: Q01DX Z (sc), vehicle: other) is 112 % of control; the T/C (dose: 39.0 mg/kg/injection, schedule: Q01DX001 (sc), vehicle: other) is 100 % of control; the T/C (dose: 39.0 mg/kg/injection, schedule: Q01DX Z (ip), vehicle: other) was 100 % of control. Moreover, the T/C reads like this: (dose: 39.0 mg/kg/injection, schedule: Q01DX Z (oral), vehicle: other) 110 % of control; (dose: 39.0 mg/kg/injection, schedule: Q02DX Z (sc), vehicle: other) 111 % of control; (dose: 39.0 mg/kg/injection, schedule: Q07DX Z (sc), vehicle: other) 111 % of control; (dose: 39.0 mg/kg/injection, schedule: Q#A X Z (sc), vehicle: other) 166 % of control; (dose: 40.0 mg/kg/injection, schedule: Q01DX009 (sc), vehicle: saline with Tween-80) 151 % of control; (dose: 46.8 mg/kg/injection, schedule: Q01DX Z (sc), vehicle: other) 122 % of control. For the same compound, the T/C (dose: 50.0 mg/kg/injection, schedule: Q01DX Z (sc), vehicle: other) is 175 % of control; the T/C (dose: 65.0 mg/kg/injection, schedule: Q01DX001 (sc), vehicle: other) was 105 % of control; the T/C (dose: 65.0 mg/kg/injection, schedule: Q01DX Z (sc), vehicle: methylcellulose (MC)) is 165 % of control; the T/C (dose: 65.0 mg/kg/injection, schedule: Q02DX Z (sc), vehicle: other) was 111 % of control; the T/C (dose: 65.0 mg/kg/injection, schedule: Q07DX Z (sc), vehicle: other) is 111 % of control; the T/C (dose: 65.0 mg/kg/injection, schedule: Q## X Z (sc), vehicle: other) is 111 % of control. In addition, the T/C reads like this: (dose: 65.0 mg/kg/injection, schedule: Q#A X Z (sc), vehicle: other) 177 % of control; (dose: 78.0 mg/kg/injection, schedule: Q01DX Z (sc), vehicle: other) 194 % of control; (dose: 80.0 mg/kg/injection, schedule: Q01DX009 (sc), vehicle: saline with Tween-80) 110 % of control; (dose: 100.0 mg/kg/injection, schedule: Q01DX Z (sc), vehicle: other) 162 % of control; (dose: 108.0 mg/kg/injection, schedule: Q01DX001 (sc), vehicle: other) 122 % of control; (dose: 108.0 mg/kg/injection, schedule: Q01DX Z (ip), vehicle: other) 175 % of control. For the same compound, the T/C runs as follows: (dose: 108.0 mg/kg/injection, schedule: Q01DX Z (oral), vehicle: other) 170 % of control; (dose: 108.0 mg/kg/injection, schedule: Q02DX Z (sc), vehicle: other) 200 % of control; (dose: 108.0 mg/kg/injection, schedule: Q07DX Z (sc), vehicle: other) 122 % of control; (dose: 108.0 mg/kg/injection, schedule: Q## X Z (sc), vehicle: other) 111 % of control; (dose: 130.0 mg/kg/injection, schedule: Q01DX Z (sc), vehicle: other) 177 % of control; (dose: 160.0 mg/kg/injection, schedule: Q01DX009 (sc), vehicle: saline with Tween-80) 89 % of control. The T/C by setting is: (dose: 180.0 mg/kg/injection, schedule: Q01DX001 (sc), vehicle: other) 122 % of control; (dose: 180.0 mg/kg/injection, schedule: Q01DX Z (sc), vehicle: methylcellulose (MC)) 118 % of control; (dose: 180.0 mg/kg/injection, schedule: Q02DX Z (sc), vehicle: other) 172 % of control; (dose: 180.0 mg/kg/injection, schedule: Q07DX Z (sc), vehicle: other) 122 % of control; (dose: 180.0 mg/kg/injection, schedule: Q## X Z (sc), vehicle: other) 122 % of control; (dose: 216.0 mg/kg/injection, schedule: Q01DX Z (sc), vehicle: other) 166 % of control. Also, the T/C by setting is: (dose: 300.0 mg/kg/injection, schedule: Q01DX001 (sc), vehicle: other) 111 % of control; (dose: 300.0 mg/kg/injection, schedule: Q01DX Z (sc), vehicle: other) 150 % of control.

Regarding `Cc1ccc(C(=O)Nc2ccc(S(=O)(=O)O)c3cc(S(=O)(=O)O)cc(S(=O)(=O)O)c23)cc1NC(=O)c1cccc(NC(=O)Nc2cccc(C(=O)Nc3cc(C(=O)Nc4ccc(S(=O)(=O)O)c5cc(S(=O)(=O)O)cc(S(=O)(=O)O)c45)ccc3C)c2)c1`, the T/C is 97 % of control (dose: 10.0 mg/kg/injection, schedule: Q07DX003 (iv), vehicle: water); 96 % of control (dose: 20.0 mg/kg/injection, schedule: Q07DX003 (iv), vehicle: water); 100 % of control (dose: 40.0 mg/kg/injection, schedule: Q07DX003 (iv), vehicle: water).

Consider `CN1CCN(c2ccc3nc(-c4ccc5nc(-c6ccc(O)cc6)[nH]c5c4)[nH]c3c2)CC1`, for which the T/C is, setting by setting: (dose: 4.7 mg/kg/injection, schedule: Q03HX024 (ip), vehicle: saline) 102 % of control; (dose: 9.4 mg/kg/injection, schedule: Q03HX024 (ip), vehicle: saline) 107 % of control; (dose: 14.0 mg/kg/injection, schedule: Q03HX008 (ip), vehicle: saline) 102 % of control; (dose: 18.75 mg/kg/injection, schedule: Q03HX024 (ip), vehicle: saline) 110 % of control; (dose: 28.0 mg/kg/injection, schedule: Q03HX008 (ip), vehicle: saline) 113 % of control; (dose: 37.5 mg/kg/injection, schedule: Q03HX024 (ip), vehicle: saline) 119 % of control. Further, the T/C (dose: 37.5 mg/kg/injection, schedule: Q04DX003 (ip), vehicle: saline) is 101 % of control; the T/C (dose: 75.0 mg/kg/injection, schedule: Q04DX003 (ip), vehicle: saline) was 107 % of control; the T/C (dose: 112.0 mg/kg/injection, schedule: Q01DX001 (ip), vehicle: suspension in saline) is 104 % of control; the T/C (dose: 150.0 mg/kg/injection, schedule: Q04DX003 (ip), vehicle: saline) was 110 % of control.

In the case of `Nc1cc(=O)[nH][nH]1`, the T/C runs as follows: (dose: 108.0 mg/kg/injection, schedule: Q01DX Z (sc), vehicle: saline) 105 % of control; (dose: 180.0 mg/kg/injection, schedule: Q01DX Z (sc), vehicle: saline) 100 % of control; (dose: 300.0 mg/kg/injection, schedule: Q01DX Z (sc), vehicle: saline) 100 % of control; (dose: 500.0 mg/kg/injection, schedule: Q01DX Z (sc), vehicle: saline) 100 % of control; (dose: 833.0 mg/kg/injection, schedule: Q01DX Z (sc), vehicle: saline) 100 % of control.

The record behind these values is PubChem BioAssay AID258 (DTP/NCI, 2004).
